{"source": "ChEMBL document CHEMBL5465560", "about": "“Selectivity Literature for EUbOPEN Chemogenomic Library” (2024)", "key": {"[1]": {"molecular_target": "Mitogen-activated protein kinase kinase kinase 11 (Homo sapiens) (UniProt Q16584)", "sequence (Q16584 whole entry, looked up)": "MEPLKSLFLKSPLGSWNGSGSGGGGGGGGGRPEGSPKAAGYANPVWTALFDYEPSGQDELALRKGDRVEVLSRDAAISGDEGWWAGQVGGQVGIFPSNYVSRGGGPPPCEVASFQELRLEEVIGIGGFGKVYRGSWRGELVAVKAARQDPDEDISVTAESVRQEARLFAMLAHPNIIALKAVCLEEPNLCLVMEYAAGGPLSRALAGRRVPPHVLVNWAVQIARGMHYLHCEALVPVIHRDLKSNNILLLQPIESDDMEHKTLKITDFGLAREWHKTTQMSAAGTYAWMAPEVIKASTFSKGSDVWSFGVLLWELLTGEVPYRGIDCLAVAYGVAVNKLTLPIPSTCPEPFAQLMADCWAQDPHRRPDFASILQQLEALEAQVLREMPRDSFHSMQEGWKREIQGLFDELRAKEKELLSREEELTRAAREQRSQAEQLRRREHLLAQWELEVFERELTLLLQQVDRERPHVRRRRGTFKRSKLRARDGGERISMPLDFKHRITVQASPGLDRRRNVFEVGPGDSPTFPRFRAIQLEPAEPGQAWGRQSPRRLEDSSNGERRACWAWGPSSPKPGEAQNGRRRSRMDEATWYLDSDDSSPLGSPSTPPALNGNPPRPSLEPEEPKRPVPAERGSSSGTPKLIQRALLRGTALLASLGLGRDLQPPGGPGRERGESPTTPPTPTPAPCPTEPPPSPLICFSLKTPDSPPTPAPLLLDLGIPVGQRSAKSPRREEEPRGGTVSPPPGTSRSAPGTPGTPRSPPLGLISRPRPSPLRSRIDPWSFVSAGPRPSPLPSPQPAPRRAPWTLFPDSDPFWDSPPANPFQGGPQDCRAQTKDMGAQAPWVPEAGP", "assay": "Selectivity interaction (LanthaScreen Eu Kinase Binding Assay) EUB0001632a MAP3K11", "details": "at 10 µM"}, "[2]": {"molecular_target": "T1, Rhodopsin kinase GRK1 (Homo sapiens) (UniProt Q15835)", "T1 sequence (whole entry)": "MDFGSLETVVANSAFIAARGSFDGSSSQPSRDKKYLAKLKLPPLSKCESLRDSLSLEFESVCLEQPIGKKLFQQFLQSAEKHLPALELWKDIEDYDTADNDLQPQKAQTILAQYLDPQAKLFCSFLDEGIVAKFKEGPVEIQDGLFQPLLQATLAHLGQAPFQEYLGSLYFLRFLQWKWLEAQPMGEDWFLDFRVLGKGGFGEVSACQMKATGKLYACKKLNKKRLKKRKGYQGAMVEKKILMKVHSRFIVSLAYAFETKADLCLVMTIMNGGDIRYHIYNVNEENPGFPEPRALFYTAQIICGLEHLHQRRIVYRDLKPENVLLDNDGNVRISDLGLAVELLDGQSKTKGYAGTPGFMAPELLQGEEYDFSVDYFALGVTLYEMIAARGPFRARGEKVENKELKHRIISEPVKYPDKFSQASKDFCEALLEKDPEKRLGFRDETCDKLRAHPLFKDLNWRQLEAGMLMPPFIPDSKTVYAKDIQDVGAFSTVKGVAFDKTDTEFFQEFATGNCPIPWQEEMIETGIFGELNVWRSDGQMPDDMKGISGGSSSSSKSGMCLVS", "assay": "Selectivity interaction (KinomeScan (DiscoverX)) EUB0000666a GRK1", "details": "at 10 µM"}, "[3]": {"molecular_target": "T2, RNA 5'-monophosphate methyltransferase (Homo sapiens) (UniProt Q7Z5W3)", "T2 sequence (whole entry)": "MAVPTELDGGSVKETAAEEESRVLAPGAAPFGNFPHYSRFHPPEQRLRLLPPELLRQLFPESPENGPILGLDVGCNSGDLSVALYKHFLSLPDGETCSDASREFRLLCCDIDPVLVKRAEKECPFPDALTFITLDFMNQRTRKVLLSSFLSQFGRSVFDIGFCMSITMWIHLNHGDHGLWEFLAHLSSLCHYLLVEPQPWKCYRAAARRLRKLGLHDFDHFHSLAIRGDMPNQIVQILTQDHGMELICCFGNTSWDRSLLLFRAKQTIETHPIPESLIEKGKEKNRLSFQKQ", "assay": "Selectivity interaction (Methyltransferase screen (radiometric assays, panel of 8 PRMTs, 21 protein lysine methyltransferases, 3 DNA methyltransferases, and one RNA methyltransferase)) EUB0000271b BCDIN3D"}, "[4]": {"molecular_target": "T3, Receptor-interacting serine/threonine-protein kinase 4 (Homo sapiens) (UniProt P57078)", "T3 sequence (whole entry)": "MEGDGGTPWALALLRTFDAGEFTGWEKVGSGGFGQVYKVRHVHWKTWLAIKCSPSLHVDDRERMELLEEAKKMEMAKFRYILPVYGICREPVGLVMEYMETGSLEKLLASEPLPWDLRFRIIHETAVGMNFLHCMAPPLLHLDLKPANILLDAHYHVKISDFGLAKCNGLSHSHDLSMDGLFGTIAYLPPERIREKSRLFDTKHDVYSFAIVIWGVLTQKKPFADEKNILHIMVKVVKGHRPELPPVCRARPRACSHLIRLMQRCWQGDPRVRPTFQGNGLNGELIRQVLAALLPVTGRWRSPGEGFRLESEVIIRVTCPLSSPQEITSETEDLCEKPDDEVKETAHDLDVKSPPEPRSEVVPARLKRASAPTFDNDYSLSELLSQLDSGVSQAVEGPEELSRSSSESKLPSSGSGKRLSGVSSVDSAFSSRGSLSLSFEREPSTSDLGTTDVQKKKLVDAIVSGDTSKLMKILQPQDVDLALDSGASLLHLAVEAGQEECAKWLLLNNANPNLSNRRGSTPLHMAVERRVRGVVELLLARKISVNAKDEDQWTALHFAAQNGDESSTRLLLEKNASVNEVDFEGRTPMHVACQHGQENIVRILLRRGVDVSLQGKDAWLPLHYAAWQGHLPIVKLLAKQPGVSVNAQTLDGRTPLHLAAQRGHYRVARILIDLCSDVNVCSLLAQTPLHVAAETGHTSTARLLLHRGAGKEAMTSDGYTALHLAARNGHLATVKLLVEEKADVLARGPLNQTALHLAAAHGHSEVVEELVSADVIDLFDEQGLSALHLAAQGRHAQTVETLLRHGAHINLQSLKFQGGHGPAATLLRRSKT", "assay": "Selectivity interaction (KinomeScan (DiscoverX)) EUB0000695a RIPK4", "details": "at 100 nM"}, "[5]": {"molecular_target": "T4, Serine/threonine-protein kinase 17B (Homo sapiens) (UniProt O94768)", "T4 sequence (whole entry)": "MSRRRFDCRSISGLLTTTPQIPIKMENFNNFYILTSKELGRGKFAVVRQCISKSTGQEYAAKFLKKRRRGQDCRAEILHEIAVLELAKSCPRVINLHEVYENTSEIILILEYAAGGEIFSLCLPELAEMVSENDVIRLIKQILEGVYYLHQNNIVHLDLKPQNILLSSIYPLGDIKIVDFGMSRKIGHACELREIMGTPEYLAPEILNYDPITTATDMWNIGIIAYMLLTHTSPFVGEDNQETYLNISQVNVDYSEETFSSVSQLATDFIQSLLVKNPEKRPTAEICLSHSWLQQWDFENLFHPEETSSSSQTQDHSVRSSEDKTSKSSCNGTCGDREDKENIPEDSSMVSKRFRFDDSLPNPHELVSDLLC", "assay": "Selectivity interaction (Kinase panel (DSF assay)) EUB0001559a STK17B"}, "[6]": {"molecular_target": "5'-AMP-activated protein kinase catalytic subunit alpha-2 (Homo sapiens) (UniProt P54646)", "sequence (P54646 whole entry, looked up)": "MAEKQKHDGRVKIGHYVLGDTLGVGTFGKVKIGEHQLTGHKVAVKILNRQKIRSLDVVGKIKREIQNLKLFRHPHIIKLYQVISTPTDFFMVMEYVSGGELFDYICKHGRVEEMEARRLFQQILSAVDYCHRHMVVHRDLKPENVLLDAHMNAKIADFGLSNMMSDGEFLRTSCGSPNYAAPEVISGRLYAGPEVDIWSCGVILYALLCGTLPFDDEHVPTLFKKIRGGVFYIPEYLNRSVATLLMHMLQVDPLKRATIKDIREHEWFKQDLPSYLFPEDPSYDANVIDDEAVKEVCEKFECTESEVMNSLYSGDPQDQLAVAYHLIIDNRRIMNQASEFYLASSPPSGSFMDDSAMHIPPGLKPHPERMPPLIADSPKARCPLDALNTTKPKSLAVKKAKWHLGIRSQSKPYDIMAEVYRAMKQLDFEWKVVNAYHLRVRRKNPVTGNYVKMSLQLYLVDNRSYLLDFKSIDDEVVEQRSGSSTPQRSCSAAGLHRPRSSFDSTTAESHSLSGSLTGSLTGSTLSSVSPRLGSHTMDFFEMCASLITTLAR", "assay": "Selectivity interaction (KinomeScan (DiscoverX)) EUB0000655a PRKAA2", "details": "at 10 µM"}, "[7]": {"molecular_target": "Calcium/calmodulin-dependent protein kinase kinase 2 (Homo sapiens) (UniProt Q96RR4)", "sequence (Q96RR4 2-588 limits assumed)": "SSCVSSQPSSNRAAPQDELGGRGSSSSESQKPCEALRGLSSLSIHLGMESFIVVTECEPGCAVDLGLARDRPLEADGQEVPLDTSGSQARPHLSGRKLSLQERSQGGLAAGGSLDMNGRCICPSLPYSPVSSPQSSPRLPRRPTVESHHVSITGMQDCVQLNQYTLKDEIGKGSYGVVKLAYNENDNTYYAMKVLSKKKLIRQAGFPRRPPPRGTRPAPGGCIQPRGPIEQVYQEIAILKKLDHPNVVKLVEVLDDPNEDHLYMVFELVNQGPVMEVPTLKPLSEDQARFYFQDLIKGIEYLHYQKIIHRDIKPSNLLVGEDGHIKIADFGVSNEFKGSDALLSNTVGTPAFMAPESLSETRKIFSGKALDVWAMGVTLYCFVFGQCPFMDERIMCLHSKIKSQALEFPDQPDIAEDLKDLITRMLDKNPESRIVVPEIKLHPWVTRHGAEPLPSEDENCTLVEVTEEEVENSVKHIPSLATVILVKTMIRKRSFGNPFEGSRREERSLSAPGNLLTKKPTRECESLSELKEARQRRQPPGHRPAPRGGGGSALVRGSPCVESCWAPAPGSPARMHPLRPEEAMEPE", "assay": "Selectivity interaction (ActivX KiNativ screen (ex vivo kinase selectivity in human PBMCs)) EUB0001619a CAMKK2", "type": "cell-based", "details": "PBMC, at 1 µM"}}}
{"smiles": "Cn1cc(-n2cnc3c(NCc4nc5cc(Cl)c(Cl)cc5[nH]4)nc(N4CCOCC4)nc32)cn1", "values": [{"measurement": "% of inhibition", "setting": "[1]", "result": -0.811, "unit": "%"}]}
{"smiles": "O=C(NOC[C@H](O)CO)c1ccc(F)c(F)c1Nc1ccc(I)cc1F", "values": [{"measurement": "% of control", "setting": "[2]", "result": 100, "unit": "%"}]}
{"smiles": "Cc1cc(C)cc([C@@H]2c3cc(C)ccc3NC(=O)CN2C(=O)c2ccc(Br)s2)c1", "values": [{"measurement": "% of activity", "setting": "[3]; at 1 µM", "result": 100, "unit": "%"}, {"measurement": "% of activity", "setting": "[3]; at 10 µM", "result": 101, "unit": "%"}]}
{"smiles": "Cc1cc(F)c(C(=O)Nc2cccc(-c3nncn3C(C)C)n2)cc1-n1cnc(C2CC2)c1", "values": [{"measurement": "% of control", "setting": "[4]", "result": 100, "unit": "%"}]}
{"smiles": "CN(C(=O)c1cnn2cccnc12)c1cc2c(cc1N1CCOCC1)C(=O)N(C[C@@H](F)C(C)(C)O)C2", "values": [{"measurement": "dTM", "setting": "[5]", "result": 1, "unit": "K"}]}
{"smiles": "CN(C)CCOc1ccc(-c2nc(-c3ccncc3)c(-c3ccc4c(c3)CC/C4=N\\O)[nH]2)cc1", "values": [{"measurement": "% of control", "setting": "[6]", "result": 94, "unit": "%"}]}
{"smiles": "N#Cc1cccc(-c2c[nH]c3ncnc(N4CCOCC4)c23)c1", "values": [{"measurement": "% of inhibition", "setting": "[7]", "result": 49, "unit": "%"}]}
